From US11566007B2, “Ras inhibitors” (Revolution Medicines, Inc., priority 2019, dated 2023)
Where “and” joins values, the source holds several entries; their conditions need not be identical. Equal entries are not always repeated.

What was measured:
[1] = system: NCI-H358 cells (K-Ras G12C); assay: Potency assay: pERK in NCI-H358 cells; format: cell-based, human; conditions: Homo sapiens, NCI-H358; H358 KRAS G12C; read-out: pERK EC50
In short: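 Compounds are dosed as ten 3-fold dilutions from a 10 mM DMSO stock, in duplicate, and left on cells for 4 h at 37 °C, 5% CO2. Phospho-ERK1/2 is then quantified by AlphaLISA SureFire Ultra or In-Cell Western, and IC50 is derived from a 4-parameter sigmoid against log concentration.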

NCI-H358 (K-Ras G12C) = assay: CellTiter-Glo cell viability assay, NCI-H358; format: cell-based, human; conditions: Homo sapiens, NCI-H358, 120 h, NCI-H358, 5-day treatment; class symbols; read-out: Additional H358 Cell Viability assay data (K-Ras G12C, IC50)
In short: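 Four-parameter logistic fits were applied to luminescence data normalized against DMSO-treated wells. Readings were taken on day 5 following direct compound addition, after roughly 30 minutes at room temperature.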

K-Ras G12C = K-Ras G12C (Homo sapiens (Human), UniProt P01116+P62937, G12C); assay: Ras-Raf (BRAF RBD) disruption / FRET / MOA assay, KRAS G12C; format: biochemical; conditions: KRAS G12C; Ras-Raf disruption/FRET/MOA assay; read-out: IC50* KRAS G12C FRET data
In short: (§1)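 Ternary complex formation (Ras–compound–cyclophilin A) displacing BRAF RBD, monitored by TR-FRET. Three hours at 25° C with compound (top 30 μM final), then 1.5 h with the labelled antibodies. Lower ratio than DMSO indicates disruption; IC50 reported.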

K-Ras G13C = K-Ras G13C (Homo sapiens (Human), UniProt P01116+P62937, G13C); assay: Ras-Raf (BRAF RBD) disruption / FRET / MOA assay, KRAS G13C; format: biochemical; conditions: KRAS G13C; Ras-Raf disruption/FRET/MOA assay; read-out: IC50* KRAS G13C FRET data
In short: as §1

KRAS G12S = KRAS G12S (Homo sapiens (Human), UniProt P01116+P62937, G12S); assay: Ras-Raf (BRAF RBD) disruption / FRET / MOA assay, KRAS G12S; format: biochemical; conditions: Ras-Raf disruption/FRET/MOA assay; class symbols; read-out: KRAS G12S FRET data IC50
In short: as §1

KRAS G12D = KRAS G12D (Homo sapiens (Human), UniProt P01116+P62937, G12D); assay: Ras-Raf (BRAF RBD) disruption / FRET / MOA assay, KRAS G12D; format: biochemical; conditions: Ras-Raf disruption/FRET/MOA assay; class symbols; read-out: KRAS G12D FRET data IC50
In short: as §1

KRAS G12V = KRAS G12V (Homo sapiens (Human), UniProt P01116+P62937, G12V); assay: Ras-Raf (BRAF RBD) disruption / FRET / MOA assay, KRAS G12V; format: biochemical; conditions: read-out: IC50* KRAS G12V FRET data
In short: as §1

KRAS WT = KRAS WT (Homo sapiens (Human), UniProt P01116+P62937); assay: Ras-Raf (BRAF RBD) disruption / FRET / MOA assay, KRAS WT; format: biochemical; conditions: read-out: IC50* KRAS WT FRET data
In short: as §1

KRAS G13D = KRAS G13D (Homo sapiens (Human), UniProt P01116+P62937, G13D); assay: Ras-Raf (BRAF RBD) disruption / FRET / MOA assay, KRAS G13D; format: biochemical; conditions: read-out: IC50* KRAS G13D FRET data
In short: as §1

NRAS G12C = NRAS G12C (Homo sapiens (Human), UniProt P01111+P62937, G12C); assay: Ras-Raf (BRAF RBD) disruption / FRET / MOA assay, NRAS G12C; format: biochemical; conditions: read-out: IC50* NRAS G12C FRET data
In short: as §1

NRAS G12C, sequence (P01111 whole entry G12C): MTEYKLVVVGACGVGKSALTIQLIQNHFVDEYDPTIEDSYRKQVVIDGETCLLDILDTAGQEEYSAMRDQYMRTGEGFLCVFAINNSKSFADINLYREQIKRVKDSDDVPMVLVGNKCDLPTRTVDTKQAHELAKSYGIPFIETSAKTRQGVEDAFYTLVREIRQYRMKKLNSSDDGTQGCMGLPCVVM
NRAS G12C, sequence (P62937 whole entry): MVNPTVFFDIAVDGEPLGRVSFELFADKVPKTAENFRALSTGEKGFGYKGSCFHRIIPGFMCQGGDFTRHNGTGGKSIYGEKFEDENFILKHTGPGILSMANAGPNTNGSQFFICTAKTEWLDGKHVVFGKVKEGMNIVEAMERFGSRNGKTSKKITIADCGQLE
KRAS G12V, sequence (P01116-2 other isoform, or with tags, fused parts or gaps G12V): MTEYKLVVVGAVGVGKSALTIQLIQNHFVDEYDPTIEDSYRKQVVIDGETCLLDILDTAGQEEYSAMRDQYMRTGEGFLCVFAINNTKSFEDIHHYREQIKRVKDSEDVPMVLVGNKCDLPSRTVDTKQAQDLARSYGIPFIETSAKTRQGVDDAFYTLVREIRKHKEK
KRAS G12V, sequence (P62937 whole entry): as the sequence (P62937 whole entry) above
KRAS WT, sequence (P01116-2 other isoform, or with tags, fused parts or gaps): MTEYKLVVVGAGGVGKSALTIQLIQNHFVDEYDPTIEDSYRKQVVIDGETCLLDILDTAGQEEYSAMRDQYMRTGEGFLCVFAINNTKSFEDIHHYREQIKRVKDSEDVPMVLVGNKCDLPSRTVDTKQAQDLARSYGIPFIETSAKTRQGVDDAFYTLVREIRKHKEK
KRAS WT, sequence (P62937 whole entry): as the sequence (P62937 whole entry) above
KRAS G13D, sequence (P01116-2 other isoform, or with tags, fused parts or gaps G13D): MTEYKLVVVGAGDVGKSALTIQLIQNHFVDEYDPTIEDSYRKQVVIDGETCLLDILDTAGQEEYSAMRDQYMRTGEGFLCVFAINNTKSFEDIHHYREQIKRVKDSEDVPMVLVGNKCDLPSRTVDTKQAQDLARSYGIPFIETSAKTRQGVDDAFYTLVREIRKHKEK
KRAS G13D, sequence (P62937 whole entry): as the sequence (P62937 whole entry) above
KRAS G12S, sequence (P01116-2 other isoform, or with tags, fused parts or gaps G12S): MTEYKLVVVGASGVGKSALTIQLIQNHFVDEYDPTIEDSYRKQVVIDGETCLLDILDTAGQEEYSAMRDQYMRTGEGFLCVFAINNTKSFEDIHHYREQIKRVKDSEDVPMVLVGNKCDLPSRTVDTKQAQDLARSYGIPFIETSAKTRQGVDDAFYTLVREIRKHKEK
KRAS G12S, sequence (P62937 whole entry): as the sequence (P62937 whole entry) above
KRAS G12D, sequence (P01116-2 other isoform, or with tags, fused parts or gaps G12D): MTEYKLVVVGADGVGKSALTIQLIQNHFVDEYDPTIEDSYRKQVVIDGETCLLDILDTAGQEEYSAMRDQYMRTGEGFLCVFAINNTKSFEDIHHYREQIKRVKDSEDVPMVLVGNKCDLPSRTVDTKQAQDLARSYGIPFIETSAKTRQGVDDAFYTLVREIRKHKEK
KRAS G12D, sequence (P62937 whole entry): as the sequence (P62937 whole entry) above
K-Ras G12C, sequence (P01116-2 other isoform, or with tags, fused parts or gaps G12C): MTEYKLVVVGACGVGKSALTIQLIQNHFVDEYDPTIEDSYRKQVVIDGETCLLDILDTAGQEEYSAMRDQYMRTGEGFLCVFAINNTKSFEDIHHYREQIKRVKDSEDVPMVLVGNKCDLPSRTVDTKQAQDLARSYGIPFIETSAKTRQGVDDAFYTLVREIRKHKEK
K-Ras G12C, sequence (P62937 whole entry): as the sequence (P62937 whole entry) above
K-Ras G13C, sequence (P01116-2 other isoform, or with tags, fused parts or gaps G13C): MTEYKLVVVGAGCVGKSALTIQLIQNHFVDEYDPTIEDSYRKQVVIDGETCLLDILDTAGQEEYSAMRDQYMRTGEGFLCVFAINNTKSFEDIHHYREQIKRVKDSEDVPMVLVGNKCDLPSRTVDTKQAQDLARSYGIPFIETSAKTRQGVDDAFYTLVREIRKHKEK
K-Ras G13C, sequence (P62937 whole entry): as the sequence (P62937 whole entry) above

`C=CC(=O)N1CC[C@H](C(=O)N(C)[C@H](C(=O)N[C@H]2Cc3cc(O)cc(c3)-c3ccc4c(c3)c(c(-c3ccc(COC)cc3CN(C)C)n4CC)CC(C)(C)COC(=O)[C@@H]3CCCN(N3)C2=O)C(C)C)C1` [Example A127] was tested, and the EC50 [1] was < 5 µM, the IC50 (NCI-H358 (K-Ras G12C)) was 0.1 to 1 µM and the IC50 (K-Ras G12C) was 0.01 to 0.1 µM. The IC50 (K-Ras G13C) was 0.1 to 1 µM, the IC50 (KRAS G12S) was 0.1 to 1 µM and the IC50 (KRAS G12D) was 1 to 10 µM. The IC50 (KRAS G12V) was 0.1 to 1 µM, the IC50 (KRAS WT) was 1 to 10 µM and the IC50 (KRAS G13D) was 1 to 10 µM. The IC50 (NRAS G12C) was 0.01 to 0.1 µM.
`C=CC(=O)N1CC[C@H](C(=O)N(C)[C@H](C(=O)N[C@H]2Cc3cc(O)cc(c3)-c3ccc4c(c3)c(c(-c3ccncc3CN(C)C)n4CC)CC(C)(C)COC(=O)[C@@H]3CCCN(N3)C2=O)C(C)C)C1` [Example A128] was tested, and the EC50 [1] was < 5 µM, the IC50 (NCI-H358 (K-Ras G12C)) was < 0.01 µM and the IC50 (K-Ras G12C) was 0.01 to 0.1 µM. It also gave an IC50 (K-Ras G13C) of 0.1 to 1 µM, an IC50 (KRAS G12S) of 0.1 to 1 µM and an IC50 (KRAS G12D) of 1 to 10 µM. The IC50 (KRAS G12V) was 0.1 to 1 µM, the IC50 (KRAS WT) was 0.1 to 1 µM and the IC50 (KRAS G13D) was 0.1 to 1 µM. For the same molecule, the IC50 (NRAS G12C) was 0.01 to 0.1 µM.
`CCn1c(-c2cccnc2COC)c2c3cc(ccc31)-c1cc(O)cc(c1)C[C@H](NC(=O)[C@H](C(C)C)N(C)C(=O)[C@H]1CCN(C(=O)C#CCCN3CCOCC3)C1)C(=O)N1CCC[C@H](N1)C(=O)OCC(C)(C)C2` [Example A129] was tested, and the EC50 [1] was < 5 µM, the IC50 (NCI-H358 (K-Ras G12C)) was 0.01 to 0.1 µM and the IC50 (K-Ras G12C) was < 0.01 µM. It also gave an IC50 (K-Ras G13C) of 0.1 to 1 µM, an IC50 (KRAS G12S) of 0.1 to 1 µM and an IC50 (KRAS G12D) of 1 to 10 µM. For the same molecule, the IC50 (KRAS G12V) was 0.1 to 1 µM, the IC50 (KRAS WT) was 1 to 10 µM and the IC50 (KRAS G13D) was 1 to 10 µM. The IC50 (NRAS G12C) was < 0.01 µM.
In the case of `CCn1c(-c2cnccc2[C@H](C)OC)c2c3cc(ccc31)-c1cccc(c1)C[C@H](NC(=O)[C@H](C1CCCC1)N(C)C(=O)[C@H]1CCN(C(=O)C#CCN(C)C)C1)C(=O)N1CCC[C@H](N1)C(=O)OCC(C)(C)C2` [Example A133], the EC50 [1] is reported as < 5 µM, the IC50 (NCI-H358 (K-Ras G12C)) is reported as 0.01 to 0.1 µM and the IC50 (K-Ras G12C) is reported as 10 nM to 100 nM and < 10 nM (2×). The IC50 (K-Ras G13C) was 10 nM to 100 nM (2×) and 1 µM to 10 µM, the IC50 (KRAS G12S) was 1 µM to 10 µM (2×) and > 10 µM and the IC50 (KRAS G12D) was 1 to 10 µM. For the same molecule, the IC50 (KRAS G12V) was 1 µM to 10 µM (2×) and > 10 µM, the IC50 (KRAS WT) was 1 µM to 10 µM (2×) and > 10 µM and the IC50 (KRAS G13D) was 1 to 10 µM. For the same molecule, the IC50 (NRAS G12C) was 10 nM to 100 nM and < 10 nM (2×).
`CCn1c(-c2cccnc2COC)c2c3cc(ccc31)-c1cc(O)cc(c1)C[C@H](NC(=O)[C@H](C(C)C)N(C)C(=O)[C@H]1CCN(C(=O)/C=C/CN3CCOCC3)C1)C(=O)N1CCC[C@H](N1)C(=O)OCC(C)(C)C2` [Example A134] was tested, and the EC50 [1] was < 5 µM, the IC50 (NCI-H358 (K-Ras G12C)) was 0.1 to 1 µM and the IC50 (K-Ras G12C) was 0.01 to 0.1 µM. The IC50 (K-Ras G13C) was 1 to 10 µM, the IC50 (KRAS G12S) was 1 to 10 µM and the IC50 (KRAS G12D) was 1 to 10 µM. The IC50 (KRAS G12V) was 1 to 10 µM, the IC50 (KRAS WT) was 1 to 10 µM and the IC50 (KRAS G13D) was 1 to 10 µM. It also gave an IC50 (NRAS G12C) of 0.01 to 0.1 µM.
In the case of `CCn1c(-c2cnccc2COC)c2c3cc(ccc31)-c1cncc(c1)C[C@H](NC(=O)[C@H](C(C)C)N(C)C(=O)[C@H]1CCN(C(=O)C#CCN(C)C)C1)C(=O)N1CCC[C@H](N1)C(=O)OCC(C)(C)C2` [Example A139], the EC50 [1] is reported as < 5 µM, the IC50 (NCI-H358 (K-Ras G12C)) is reported as 0.1 to 1 µM and the IC50 (K-Ras G12C) is reported as 0.01 to 0.1 µM. The IC50 (K-Ras G13C) was 1 to 10 µM, the IC50 (KRAS G12S) was > 10 µM and the IC50 (KRAS G12D) was 1 to 10 µM. For the same molecule, the IC50 (KRAS G12V) was > 10 µM, the IC50 (KRAS WT) was > 10 µM and the IC50 (KRAS G13D) was > 10 µM. It also gave an IC50 (NRAS G12C) of 0.1 to 1 µM.
In the case of `CCn1c(-c2cnccc2[C@H](C)OC)c2c3cc(ccc31)-c1cccc(c1)C[C@H](NC(=O)[C@H](C(C)C)N(C)C(=O)[C@H]1CCN(C(=O)C#CCN(C)C)C1)C(=O)N1CCC[C@H](N1)C(=O)OCC(C)(C)C2` [Example A140], the EC50 [1] is reported as < 5 µM, the IC50 (NCI-H358 (K-Ras G12C)) is reported as < 0.01 µM and the IC50 (K-Ras G12C) is reported as < 0.01 µM. For the same molecule, the IC50 (K-Ras G13C) was 0.01 to 0.1 µM, the IC50 (KRAS G12S) was 1 to 10 µM and the IC50 (KRAS G12D) was 1 to 10 µM. The IC50 (KRAS G12V) was 1 to 10 µM, the IC50 (KRAS WT) was 1 to 10 µM and the IC50 (KRAS G13D) was 1 to 10 µM. The IC50 (NRAS G12C) was < 0.01 µM.
`CCn1c(-c2cnccc2C(C)C)c2c3cc(ccc31)-c1cc(O)cc(c1)C[C@H](NC(=O)[C@H](C(C)C)N(C)C(=O)[C@H]1CCN(C(=O)C#CCN(C)C)C1)C(=O)N1CCC[C@H](N1)C(=O)OCC(C)(C)C2` [Example A141] was tested, and the EC50 [1] was < 5 µM, the IC50 (NCI-H358 (K-Ras G12C)) was < 0.01 µM and the IC50 (K-Ras G12C) was < 0.01 µM. The IC50 (K-Ras G13C) was 0.01 to 0.1 µM, the IC50 (KRAS G12S) was 0.1 to 1 µM and the IC50 (KRAS G12D) was 1 to 10 µM. The IC50 (KRAS G12V) was 0.1 to 1 µM, the IC50 (KRAS WT) was 0.1 to 1 µM and the IC50 (KRAS G13D) was 0.1 to 1 µM. The IC50 (NRAS G12C) was < 0.01 µM.
